The source of these data is US8367659B2, “Oxazinyl isoflavonoid compounds, medicaments and use” (Marshall Edwards, Inc., priority 2007, dated 2013).

Assay [1] concerns VCAM. Description: TNFα-induced VCAM expression in human arterial endothelial cells (ELISA). Format: cell-based. The note with it: HAEC; 10 μM found most appropriate for comparing. As to the method:
Inhibition of TNFα-stimulated endothelial cell activation by compounds was assessed by measuring surface expression of cell adhesion molecules with an ELISA method. Human arterial endothelial cells (HAEC) in growth medium (Cell Applications Inc.) were seeded into 96-well plates at a density of 10,000 cells per well. Plates were incubated overnight at 37° C. in a humidified incubator to allow for cells to become confluent. On the morning of the experiment, TNFα (10 μl, 2 ng/ml) was added to each well, which contained 100 μl of medium. Compounds were diluted in DMSO-containing medium (2.5% DMSO) to give a compound concentration of 100 and 300 μM. Compounds were added to wells so that final concentrations were 10 and 30 μM. DMSO-containing medium alone was added to zero concentration control wells. All samples were measured in quadruplicate (4 wells per treatment).
After incubation with compound, medium was removed and cells were probed with either non-specific IgG or specific mouse antibodies against E-selectin, ICAM or VCAM (BD Biosciences—0.1 μg in 100 μL buffered saline with 10% heat-inactivated human serum). Adhesion molecule expression was detected by addition of sheep anti-mouse antibody/horseradish peroxidase conjugate. […] Optical density was measured at 405 nm with an ELISA reader (Titertek Multiscan, Flow Laboratories). […]

The test system of assay [2] is low density lipoprotein (LDL). In words: Inhibition of Cu2+-induced oxidation of LDL (lipid peroxides, FOX assay). In kind it is biochemical. As to the method: Blood was collected by venipuncture and plasma separated by centrifugation. LDL was then isolated from plasma using a 4-step sodium chloride density gradient and ultracentrifuged at 200,000 g for 20 hours at 4° C. The collect LDL was purified by passage through gel filtration PD10 column to remove excess salt and EDTA, and stored in the dark at 4° C. to prevent auto-oxidation and used with two weeks of isolation. The LDL cholesterol content was measure using a standard enzymatic method and protein concentration determined by the Lowry method using BSA as the standard.
[…] Oxidation reactions were initiated by the addition of freshly prepared Cu^2+ solution, such that the final concentration of CuSO4 was 5 μM. […] The extent of lipoprotein oxidation was determined by measuring the formation of lipid-peroxides on aliquots removed every 30-minute over a 3-hour period. Peroxides were determined at each time point by the ferrous oxidation-xylenol orange (FOX) assay using standard hydrogen peroxide curve (5 to 200 μM). Compounds (1) and (2) were examined in at least two separate experiments performed on separate days.

The target of assay [3] is T1, GAL4-PPARγ fusion protein (Homo sapiens, UniProt P37231).
T1 construct: host or cells: HEK293 (human embryonic kidney), stably transfected
T1 sequence (P37231 238-503 limits assumed): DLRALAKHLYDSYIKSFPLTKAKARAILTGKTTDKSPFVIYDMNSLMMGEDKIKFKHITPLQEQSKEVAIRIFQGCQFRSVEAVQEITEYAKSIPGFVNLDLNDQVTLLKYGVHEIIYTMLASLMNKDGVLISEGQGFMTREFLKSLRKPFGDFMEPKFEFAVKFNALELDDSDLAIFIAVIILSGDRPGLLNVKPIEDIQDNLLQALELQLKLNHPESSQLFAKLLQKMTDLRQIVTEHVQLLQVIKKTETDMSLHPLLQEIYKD
T1 sequence (P04386 1-147 partner limits assumed): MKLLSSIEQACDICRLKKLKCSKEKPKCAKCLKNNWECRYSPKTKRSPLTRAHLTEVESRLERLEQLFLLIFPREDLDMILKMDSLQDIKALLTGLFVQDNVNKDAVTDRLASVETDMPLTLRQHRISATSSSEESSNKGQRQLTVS
In words: PPARγ activity in transfected HEK293 cells (beta-lactamase reporter). Format: cell-based. The note with it: FIG. 13: 1 μM. The essentials: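 HEK293 cells stably expressing GAL4-DBD/PPARγ-LBD fusion with beta-lactamase reporter, treated with compound at 1, 5 and 10 μM for 16-18 h. Beta-lactamase read via FRET substrate (2 h, room temperature), ex 409 nm, em 460/530 nm; background-subtracted emission ratio.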

As to `Oc1cccc(C2=Cc3ccc(O)cc3OC2)c1` [Compound 37-DHE, 3′,7-dihydroxy-isoflav-3-ene, reference compound], in assay [1], the “effect on TNFα-induced VCAM expression” value was “less pronounced”.

With `CC(c1ccccc1)N1COc2cc3c(cc2C1)C=C(c1ccc(O)cc1)CO3` (stereo not drawn) [Compound 2, 4-(3-(1-Phenylethyl)-2,3,4,8-tetrahydrochromeno[6,7-e][1,3]oxazin-7-yl)phenol], the EC50 in assay [2] (LDL 0.1 mg/mL, CuSO4 5 μM, read-out: EC50, concentration at which 50% of the LDL oxidation was inhibited) turned out to be 630 nM. For the same compound, the lipid peroxide formation in assay [2] (LDL 0.1 mg/ml + compound 0.1 μM + Cu^++ 5 μM, 0 min) is 10.5 ± 2.93; in assay [2] (LDL 0.1 mg/ml + compound 0.1 μM + Cu^++ 5 μM, 30 min) it was 13.9 ± 2.51; in assay [2] (LDL 0.1 mg/ml + compound 0.1 μM + Cu^++ 5 μM, 60 min), 23.7 ± 4.71; in assay [2] (LDL 0.1 mg/ml + compound 0.1 μM + Cu^++ 5 μM, 90 min), 75.1 ± 8.43; in assay [2] (LDL 0.1 mg/ml + compound 0.1 μM + Cu^++ 5 μM, 120 min), 138.5 ± 2.94; in assay [2] (LDL 0.1 mg/ml + compound 0.1 μM + Cu^++ 5 μM, 180 min), 173.7 ± 34.4. For the same compound, the lipid peroxide formation in assay [2] (LDL 0.1 mg/ml + compound 1.0 μM + Cu^++ 5 μM, 0 min) was 10.22 ± 2.9; in assay [2] (LDL 0.1 mg/ml + compound 1.0 μM + Cu^++ 5 μM, 30 min), 11.62 ± 2.4; in assay [2] (LDL 0.1 mg/ml + compound 1.0 μM + Cu^++ 5 μM, 60 min), 12.08 ± 3.2; in assay [2] (LDL 0.1 mg/ml + compound 1.0 μM + Cu^++ 5 μM, 90 min), 18.25 ± 3.2; in assay [2] (LDL 0.1 mg/ml + compound 1.0 μM + Cu^++ 5 μM, 120 min) it was 35.12 ± 0.4; in assay [2] (LDL 0.1 mg/ml + compound 1.0 μM + Cu^++ 5 μM, 180 min), 133.1 ± 18.3. The lipid peroxide formation in assay [2] (LDL 0.1 mg/ml + compound 10 μM + Cu^++ 5 μM, 0 min) stood at 10.20 ± 2.6; in assay [2] (LDL 0.1 mg/ml + compound 10 μM + Cu^++ 5 μM, 30 min), 15.99 ± 0.1; in assay [2] (LDL 0.1 mg/ml + compound 10 μM + Cu^++ 5 μM, 60 min), 18.26 ± 0.8; in assay [2] (LDL 0.1 mg/ml + compound 10 μM + Cu^++ 5 μM, 90 min), 20.64 ± 1.3; in assay [2] (LDL 0.1 mg/ml + compound 10 μM + Cu^++ 5 μM, 120 min) it was 23.68 ± 1.2; in assay [2] (LDL 0.1 mg/ml + compound 10 μM + Cu^++ 5 μM, 180 min) it was 24.6 ± 21.9. In addition, the lipid peroxide formation in assay [2] (LDL 0.1 mg/ml + compound 100 μM + Cu^++ 5 μM, 0 min) is given as 12.09 ± 2.8; in assay [2] (LDL 0.1 mg/ml + compound 100 μM + Cu^++ 5 μM, 30 min), 15.93 ± 5.4; in assay [2] (LDL 0.1 mg/ml + compound 100 μM + Cu^++ 5 μM, 60 min), 19.40 ± 7.8; in assay [2] (LDL 0.1 mg/ml + compound 100 μM + Cu^++ 5 μM, 90 min), 23.27 ± 8.7; in assay [2] (LDL 0.1 mg/ml + compound 100 μM + Cu^++ 5 μM, 120 min), 28.76 ± 5.0; in assay [2] (LDL 0.1 mg/ml + compound 100 μM + Cu^++ 5 μM, 180 min), 28.6 ± 12.9. Besides, the lipid peroxide formation in assay [2] (compound 100 μM + Cu^++ 5 μM, without LDL, 0 min) worked out at 7.69 ± 3.8; in assay [2] (compound 100 μM + Cu^++ 5 μM, without LDL, 30 min), 14.97 ± 0.4; in assay [2] (compound 100 μM + Cu^++ 5 μM, without LDL, 60 min) it was 19.19 ± 2.1; in assay [2] (compound 100 μM + Cu^++ 5 μM, without LDL, 90 min) it was 24.30 ± 4.3; in assay [2] (compound 100 μM + Cu^++ 5 μM, without LDL, 120 min) it was 28.31 ± 2.8; in assay [2] (compound 100 μM + Cu^++ 5 μM, without LDL, 180 min), 33.20 ± 6.7. For the same compound, in assay [3], the “PPARγ activation, increase in beta-lactamase activity over media only control” value was “PPARγ agonist activity”.
